Each structure is given as a SMILES string. pKi: −log10 of the molar value.

The target of one experiment is T1, human orexin 1 receptor (Homo sapiens, UniProt O43613).
T1 construct: expressed in transfected cells
T1 sequence (O43613 1-425): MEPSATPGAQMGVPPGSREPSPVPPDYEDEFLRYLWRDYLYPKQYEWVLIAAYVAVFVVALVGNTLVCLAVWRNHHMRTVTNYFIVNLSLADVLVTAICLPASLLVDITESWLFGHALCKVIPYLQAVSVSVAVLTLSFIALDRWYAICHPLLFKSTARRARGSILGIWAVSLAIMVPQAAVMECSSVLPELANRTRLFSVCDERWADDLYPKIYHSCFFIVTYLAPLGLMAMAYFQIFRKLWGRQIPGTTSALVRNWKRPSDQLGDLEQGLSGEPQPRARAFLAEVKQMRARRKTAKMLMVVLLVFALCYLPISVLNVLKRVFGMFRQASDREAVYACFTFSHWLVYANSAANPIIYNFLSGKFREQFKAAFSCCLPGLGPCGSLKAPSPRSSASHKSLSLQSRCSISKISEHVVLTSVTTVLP
The experiment can be described thus: Calcium accumulation in cells (FLIPR), antagonism of orexin A, human orexin 1 receptor. It is filed as cell-based. Conditions: for pKi: calcium accumulation, antagonism of orexin A, Cheng-Prusoff corrected, read-out: FLIPR hOx1R Ki; for inhibition at 10 µM: measured at a concentration of 10 μM of compound, read-out: FLIPR hOx1R % inhibition.

The next experiment concerns the target T2, human orexin 2 receptor (Homo sapiens, UniProt O43614).
T2 construct: expressed in transfected cells
T2 sequence (O43614 1-444): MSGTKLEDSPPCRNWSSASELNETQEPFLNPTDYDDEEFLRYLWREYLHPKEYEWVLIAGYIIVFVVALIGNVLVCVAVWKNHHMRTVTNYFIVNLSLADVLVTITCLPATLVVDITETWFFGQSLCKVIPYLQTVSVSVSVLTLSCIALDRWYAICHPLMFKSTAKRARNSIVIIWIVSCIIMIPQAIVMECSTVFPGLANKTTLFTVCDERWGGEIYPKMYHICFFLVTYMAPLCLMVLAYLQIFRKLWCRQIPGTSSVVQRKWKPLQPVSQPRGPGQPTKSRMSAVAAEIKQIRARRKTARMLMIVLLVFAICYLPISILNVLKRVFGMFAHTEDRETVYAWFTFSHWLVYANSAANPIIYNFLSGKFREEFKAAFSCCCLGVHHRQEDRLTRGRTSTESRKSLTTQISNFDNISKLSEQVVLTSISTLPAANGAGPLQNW
Briefly: Calcium accumulation in cells (FLIPR), antagonism of orexin A, human orexin 2 receptor. Format: cell-based. Conditions: for pKi: calcium accumulation, antagonism of orexin A, Cheng-Prusoff corrected, read-out: FLIPR hOx2R Ki; for inhibition at 10 µM: measured at a concentration of 10 μM of compound, read-out: FLIPR hOx2R % inhibition.

Turning to `COc1cc(N2CCC3(CCN(Cc4c[nH]c5ccccc45)C3=O)C2)n2nccc2n1` (stereo not drawn) [Example 5.38, 2-((1H-indol-3-yl)methyl)-7-(5-methoxypyrazolo[1,5-a]pyrimidin-7-yl)-2,7-diazaspiro[4.4]nonan-1-one], the figures for the pKi on human orexin 1 receptor and on human orexin 2 receptor were 5.62 and 5.99, respectively.

`Cc1ccc(C)c(CN2C(=O)COCC23CCN(c2cncc(C)n2)CC3)c1` [Example 8.13, 1-(2,5-Dimethylbenzyl)-9-(6-methylpyrazin-2-yl)-4-oxa-1,9-diazaspiro[5.5]undecan-2-one]: the inhibition at 10 µM on human orexin 1 receptor is less than 10%. For the same compound, the pKi on human orexin 2 receptor is 6.39.

Turning to `O=C1OCC2(CCN(c3cnc4ccccc4n3)CC2)N1Cc1c[nH]c2ccccc12` [Example 8.21], at human orexin 1 receptor, the inhibition at 10 µM worked out at 33%. On human orexin 2 receptor, the pKi is 6.32.

`COCc1ccc(-c2cn(C)nc2CN2CCNC3(CCN(c4nc(C)cc(C)n4)CC3)C2=O)cc1` [Example 1.51, 9-(4,6-Dimethyl-pyrimidin-2-yl)-4-((4-(4-(methoxymethyl)phenyl)-1-methyl-1H-pyrazol-3-yl)methyl)-1,4,9-triazaspiro[5.5] undecan-5-one]: on human orexin 1 receptor, the inhibition at 10 µM was less than 10%. The pKi on human orexin 2 receptor was 5.91.

As for `Cc1csc(N2CCC3(CCN(Cc4c[nH]c5ccccc45)C3=O)C2)n1` (stereo not drawn) [Example 5.37, 2-((1H-indol-3-yl)methyl)-7-(4-methylthiazol-2-yl)-2,7-diazaspiro[4.4]nonan-1-one], the values for the pKi on human orexin 1 receptor and at human orexin 2 receptor were 5.44 and 5.85, respectively.

`COCc1cccc(-c2ocnc2CN2CCNC3(CCN(c4nc(C)cc(C#N)n4)CC3)C2=O)c1` [Example 1.28, 2-(4-((5-(3-(Methoxymethyl)phenyl)oxazol-4-yl)methyl)-5-oxo-1,4,9-triazaspiro[5.5]undecan-9-yl)-6-methylpyrimidine-4-carbonitrile]: the inhibition at 10 µM on human orexin 1 receptor came to 33%. Moreover, the pKi on human orexin 2 receptor is 6.29.

With `Cc1cc(C)nc(N2CCC3(CCN(Cc4ccc5[nH]ccc5c4)C3=O)CC2)n1` [Example 3.23, 2-((1H-indol-5-yl)methyl)-8-(4,6-dimethylpyrimidin-2-yl)-2,8-diazaspiro[4.5]decan-1-one], the inhibition at 10 µM on human orexin 1 receptor turned out to be 10%. Besides, the pKi on human orexin 2 receptor was 5.62.

Consider `Cc1cnc(N2CCC3(CCN(Cc4c[nH]c5ccccc45)C3=O)C2)s1` (stereo not drawn) [Example 5.23, 2-((1H-indol-3-yl)methyl)-7-(5-methylthiazol-2-yl)-2,7-diazaspiro[4.4]nonan-1-one], for which the inhibition at 10 µM on human orexin 1 receptor came to 67%. In addition, on human orexin 2 receptor, the pKi is 6.19.

On to `O=C1N(Cc2c[nH]c3ccccc23)CCC12CCN(c1nc3ccccc3o1)C2` (stereo not drawn) [Example 5.8, 2-((1H-Indol-3-yl)methyl)-7-(benzo[d]oxazol-2-yl)-2,7-diazaspiro[4.4]nonan-1-one], for which the pKi at human orexin 1 receptor was 6.13; at human orexin 2 receptor, 6.52.

On to `O=C1N(Cc2c[nH]c3ccccc23)CCC12CCN(c1ccc(-n3ccnc3)nn1)C2` (stereo not drawn) [Example 5.20, 7-(6-(1H-imidazol-1-yl)pyridazin-3-yl)-2-((1H-indol-3-yl)methyl)-2,7-diazaspiro[4.4]nonan-1-one], for which the inhibition at 10 µM at human orexin 1 receptor was 34%; on human orexin 2 receptor it was 33%.

With `COc1ccnc(N2CCC3(CC2)NCCN(Cc2nc(C)oc2-c2ccccc2)C3=O)n1` [Example 1.22, 9-(4-Methoxy-pyrimidin-2-yl)-4-((2-methyl-5-phenyloxazol-4-yl)methyl)-1,4,9-triazaspiro[5.5] undecan-5-one], the inhibition at 10 µM on human orexin 1 receptor was 19%. Besides, the pKi on human orexin 2 receptor was 5.99.

With `Cc1cc(C)nc(N2CCC3(CC2)OCCN(Cc2ccccc2-c2ccco2)C3=O)n1` [Example 2.3, 9-(4,6-Dimethyl-pyrimidin-2-yl)-4-(2-furan-2-yl-benzyl)-1-oxa-4,9-diaza-spiro[5.5]undecan-5-one], the pKi was 5.96 at human orexin 1 receptor and 6.85 at human orexin 2 receptor.

As for `COc1ccc(-c2cn(C)nc2CN2CCNC3(CCN(c4nc(C)cc(C)n4)CC3)C2=O)cc1OC` [Example 1.35, 4-((4-(3,4-Dimethoxyphenyl)-1-methyl-1H-pyrazol-3-yl)methyl)-9-(4,6-dimethylpyrimidin-2-yl)-1,4,9-triazaspiro[5.5] undecan-5-one], the inhibition at 10 µM at human orexin 1 receptor was 25%. Also, on human orexin 2 receptor, the negative-log Ki (pKi) is 6.40.

On to `O=C1N(Cc2c[nH]c3ccccc23)CCC12CCN(c1nc3ccccc3o1)CC2` [Example 3.13, 8-Benzooxazol-2-yl-2-(1H-indol-3-ylmethyl)-2,8-diaza-spiro[4.5]decan-1-one], for which the negative logarithm of the Ki (pKi) on human orexin 1 receptor and at human orexin 2 receptor was 6.47 throughout.

Turning to `O=C1N(Cc2c[nH]c3ccccc23)CCC12CCCN(c1cnc3ccccc3n1)C2` (stereo not drawn) [Example 6.1], the pKi at human orexin 1 receptor is 5.95; on human orexin 2 receptor, 6.19.

In the case of `COc1ccnc(N2CCC3(CCCN(Cc4c[nH]c5ncccc45)C3=O)C2)n1` (stereo not drawn) [Example 7.2, 7-((1H-Pyrrolo[2,3-b]pyridin-3-yl)methyl)-2-(4-methoxypyrimidin-2-yl)-2,7-diazaspiro[4.5]decan-6-one], the pKi was 5.49 at human orexin 1 receptor and 6.15 at human orexin 2 receptor.

With `COc1nc(C)cc(N2CCC3(CCN(Cc4c[nH]c5ccccc45)C3=O)C2)n1` (stereo not drawn) [Example 5.36, 2-((1H-indol-3-yl)methyl)-7-(2-methoxy-6-methylpyrimidin-4-yl)-2,7-diazaspiro[4.4]nonan-1-one], the inhibition at 10 µM at human orexin 1 receptor worked out at 18%. Besides, the pKi at human orexin 2 receptor is 6.03.

As for `COc1cc(C)nc(N2CCC3(CCN(Cc4c[nH]c5ccccc45)C3=O)C2)n1` (stereo not drawn) [Example 5.4, 2-((1H-indol-3-yl)methyl)-7-(4-methoxy-6-methylpyrimidin-2-yl)-2,7-diazaspiro[4.4]nonan-1-one], the pKi on human orexin 1 receptor is 5.98; at human orexin 2 receptor, 6.92.

In the case of `O=C1N(Cc2c[nH]c3ccccc23)CCC12CCN(c1nccc(-n3ccnc3)n1)C2` (stereo not drawn) [Example 5.18, 7-(4-(1H-imidazol-1-yl)pyrimidin-2-yl)-2-((1H-indol-3-yl)methyl)-2,7-diazaspiro[4.4]nonan-1-one], the negative-log Ki (pKi) at human orexin 1 receptor is 5.72; on human orexin 2 receptor, 5.91.

`COc1ccnc(N2CC[C@]3(CCN(Cc4c[nH]c5ccccc45)C3=O)C2)n1` [Example 5.3, (S)-2-((1H-indol-3-yl)methyl)-7-(4-methoxypyrimidin-2-yl)-2,7-diazaspiro[4.4]nonan-1-one]: the values for the pKi on human orexin 1 receptor and on human orexin 2 receptor were 5.58 and 6.99, respectively.

Turning to `Cc1cncc(N2CCC3(CC2)COC(=O)N3Cc2c[nH]c3ccccc23)n1` [Example 8.23, 1-((1H-Indol-3-yl)methyl)-8-(6-methylpyrazin-2-yl)-3-oxa-1,8-diazaspiro[4.5]decan-2-one], the inhibition at 10 µM is less than 10% on human orexin 1 receptor and 20% on human orexin 2 receptor.

With `O=C1COCC2(CCN(c3cnc4ccccc4n3)CC2)N1Cc1c[nH]c2ccccc12` [Example 8.8, 1-((1H-Indol-3-yl)methyl)-9-(quinoxalin-2-yl)-4-oxa-1,9-diazaspiro[5.5]undecan-2-one], the inhibition at 10 µM at human orexin 1 receptor was 33%. Further, the negative logarithm of the Ki (pKi) on human orexin 2 receptor is 6.20.

As for `COc1ccnc(N2CCC3(CCCN(Cc4n[nH]c5ccccc45)C3=O)C2)n1` (stereo not drawn) [Example 7.3, 7-((1H-Indazol-3-yl)methyl)-2-(4-methoxypyrimidin-2-yl)-2,7-diazaspiro[4.5]decan-6-one], the pKi on human orexin 1 receptor is 5.84; on human orexin 2 receptor it was 6.63.

With `O=C1N(Cc2c[nH]c3ccccc23)CCC12CCN(c1nccc(C(F)(F)F)n1)C2` (stereo not drawn) [Example 5.41, 2-((1H-indol-3-yl)methyl)-7-(4-(trifluoromethyl)pyrimidin-2-yl)-2,7-diazaspiro[4.4]nonan-1-one], the figures for the negative logarithm of the Ki (pKi) on human orexin 1 receptor and on human orexin 2 receptor were 5.62 and 6.46, respectively.

For `COc1ccc(-c2cn(C)nc2CN2CCNC3(CCN(c4nc(C)cc(C)n4)CC3)C2=O)cc1` [Example 1.36, 9-(4,6-Dimethyl-pyrimidin-2-yl)-4-((4-(4-methoxyphenyl)-1-methyl-1H-pyrazol-3-yl)methyl)-1,4,9-triazaspiro[5.5] undecan-5-one], the inhibition at 10 µM at human orexin 1 receptor was 41%. Moreover, on human orexin 2 receptor, the pKi is 6.73.

Consider `O=C1N(Cc2c[nH]c3ccccc23)CCC12CCN(c1cc(C(F)(F)F)ncn1)C2` (stereo not drawn) [Example 5.17, 2-((1H-Indol-3-yl)methyl)-7-(6-(trifluoromethyl)pyrimidin-4-yl)-2,7-diazaspiro[4.4]nonan-1-one], for which the inhibition at 10 µM at human orexin 1 receptor stood at 49%. In addition, on human orexin 2 receptor, the pKi was 5.75.

Take `Cc1cc(C)nc(N2CCC3(CCN(Cc4ccccc4-c4nc(C)no4)C3=O)CC2)n1` [Example 3.19, 8-(4,6-Dimethyl-pyrimidin-2-yl)-2-[2-(3-methyl-[1,2,4]oxadiazol-5-yl)-benzyl]-2,8-diaza-spiro[4.5]decan-1-one]: at human orexin 1 receptor, the inhibition at 10 µM came out at 22%. The pKi on human orexin 2 receptor is 6.90.

The term pKi denotes the Ki on a negative log10 scale, so that one unit is a factor of ten. The inhibition is the drop in the measured response relative to a control, in per cent.

Source of the values: patent US20120165331A1, “Di/tri-aza-spiro-C9-C11alkanes” (priority 2010, published 2012).
